The record followed here is US10358425B1, “Dihydropyrimidones and pharmaceutical compositions thereof” (King Abdulaziz University, priority 2018, dated 2019).

In general, melting point refers to the temperature, or range, at which the solid turns liquid.

`O=C1NC(O)=C(C(=O)c2ccccc2)C(c2ccccc2)N1` (stereo not shown) [Compound 7, 5-benzoyl-6-hydroxy-4-phenyl-3,4-dihydropyrimidin-2(1H)-one] gave a melting point of 267 °C.
